# From patent publication US10966944B2, “[2.2.2] bicyclic derivatives and methods of use” (ASE PHARMACEUTICALS, LLC, priority 2008, dated 2021)
# What was measured:
# epilepsy patients = test: Clinical trials in epilepsy patients and volunteers (Example 1); assay type: in vivo, human
# Description: Clinical trials involving administration of sodium bicyclo-[2.2.2]-octane-2-carboxylate were performed on 30 epilepsy patients and 20 volunteers in two clinics in Moscow. […] Classification of the patients was done in accordance with International Classification of Epilepsy and Epileptic Syndromes (ILAE, 1989). Some of the subjects also suffered from addictive disorders (alcoholism, drug addiction). In 73% of trial subjects, sodium bicyclo-[2.2.2]-octane-2-carboxylate administration reduced the frequency, intensity, and duration of epileptic seizures. […] It normalized cerebral blood circulation and increased the sympathetic tonus of the patients. […] The following were used to assess trial subjects: • Visual checkup • EEG • CT • MRT • Clinical blood and urine tests • general blood test • biochemical blood test • general urine tests • Inspection and checkup of organs and systems: • respiratory system • cardiovascular system • alimentary system • urinary system • Neurological status • Concurrent disease status.
# adult epilepsy patients [1] = test: Randomized open-controlled study, add-on to base therapy: frequency and severity of epileptic seizures (Example 2); assay type: in vivo, human
# Description: The study of sodium bicyclo-[2.2.2]-octane-2-carboxylate as an addition to a base therapy was conducted in the group of adult epilepsy patients. Sodium bicyclo-[2.2.2]-octane-2-carboxylate was administered during 10 weeks. Thirty patients in both hospitals (twenty-six males and four females) were included in the studies.
# Base therapy was administered in accordance with recommendations by the International Anti-epileptic League (1989). During the study, the patients continued to receive pathogenetic treatment. Medication names, doses and the duration of any treatment were registered in patients' medical records (MR). The patients continued receiving their standard prescribed medications and were not switched to a different drug at any time during the study.
# During the introductory period of 7 to 10 days, the patients were examined; base therapy scheme was being finalized and was described in a standard protocol. In accordance with the protocol, the patients were screened for inclusion/exclusion factors. Only those patients who signed an informed consent and who satisfied the inclusion criteria were included in the study. The frequency of epileptic seizures in patients receiving pre-sodium bicyclo-[2.2.2]-octane-2-carboxylate base therapy varied from 1 to 16 times a month.
# (§1) At the start of sodium bicyclo-[2.2.2]-octane-2-carboxylate protocol, all patients began receiving sodium bicyclo-[2.2.2]-octane-2-carboxylate at 100 mg four times a day. If the clinical effect was absent by day 14, the dose of Sodium bicyclo-[2.2.2]-octane-2-carboxylate was increased to 150 mg. Patients with various forms of epilepsy were selected for the study (Table 2).
# (§2) Main study parameters included efficiency criteria such as the number and severity of seizures, and safety criteria such as the clinical and laboratory tests. The complete examination included: • 1) Neurological exams. • 2) Computer-assisted tomography (CAT scan). • 3) MRI of the brain. • 4) General blood work: baseline before Sodium bicyclo-[2.2.2]-octane-2-carboxylate treatment, 2 weeks and 1.5 months after the beginning of the treatment. • 5) General urine analysis. • 6) Blood biochemistry. • 7) ECG. • 8) EEG and pharmaco-EEG. Physical exams and testing results were registered by a research physician in the MRs and were analyzed by statistical methods.
# To evaluate treatment efficacy, the frequency and severity of epileptic seizures were monitored. […] In the majority of patients suffering from partial epilepsy, seizures became less severe and occurred less frequently. The patients reported feeling better, with improvement of mood, work efficiency, and sleep quality. […]
# adult epilepsy patients [2] = test: General blood work before and after treatment (Example 2, safety); assay type: in vivo, human
# Description: as §1, §2
# (§3) The effective therapeutic dose was determined as 400 mg per day in 60% of the patients, and 600 mg per day in the remaining 40%. Safety aspects of sodium bicyclo-[2.2.2]-octane-2-carboxylate were evaluated during the treatment and after the treatment by monitoring the clinical and laboratory parameters.
# (§4) Before-before Sodium bicyclo-[2.2.2]-octane-2-carboxylate treatment After-after Sodium bicyclo-[2.2.2]-octane-2-carboxylate treatment. No statistically significant differences in any other parameters before and after Sodium bicyclo-[2.2.2]-octane-2-carboxylate treatment were detected.
# adult epilepsy patients [3] = test: Blood chemistry before and after treatment (Example 2, safety); assay type: in vivo, human
# Description: as §1, §2, §3, §4
# adult epilepsy patients [4] = test: EEG parameters before and after treatment (Example 2); assay type: in vivo, human; settings: averaged, after treatment (before treatment: 197.7)
# Description: as §2
# adult epilepsy patients [5] = test: ECG recording during the study (Example 2); assay type: in vivo, human; settings: patients with extrasystolia and tachycardia
# Description: as §2, with “methods. ECGs were recorded before the beginning of the treatment, during the course of the study (on a regular basis), and immediately after the study had been completed. […] In the patients with extrasystolia and tachycardia, extrasystolia was not observed by the end of the first treatment month, while the heart rate decreased on average from 88/min to 80/min. In the patients with bradycardia, sinus rhythm dropped further.” for “methods.”
# adult epilepsy patients [6] = test: Dysphoria and general condition in the study patients (Example 2); assay type: in vivo, human
# Description: During each scheduled visit and at the completion of the study, complete physical examination of each patient was performed. Physical exams included patients' general condition, examinations of the skin, ENT, lungs, heart, stomach, lymph nodes, central nervous system, etc. Valid data obtained before beginning of Sodium bicyclo-[2.2.2]-octane-2-carboxylate treatment was entered in appropriate sections of MRs. The data collected during the treatment (including the observed side effects) was entered in the Brief Description sections of the MRs. […] This effect correlated with disappearance of alcohol addiction.
# [7] = average, after treatment (before: 4.75)
# [8] = deviation after vs before treatment
structure (smiles),measurement,setting,value
O=C([O-])C1CC2CCC1CC2.[Na+] (centres unmarked) [Sodium bicyclo-[2.2.2]-octane-2-carboxylate],"trial subjects with reduced frequency, intensity, and duration of epileptic seizures","epilepsy patients; 30 epilepsy patients and 20 volunteers, two clinics",73%
same,side effects in human clinical trials,epilepsy patients; human clinical trials,without significant negative side effects
same,effective therapeutic dose,adult epilepsy patients [1]; in 60% of the patients,400 mg per day
same,effective therapeutic dose,adult epilepsy patients [1]; in the remaining 40% of the patients,600 mg per day
same,patients with decrease in seizure frequency (number),adult epilepsy patients [1]; of 30 patients,22 patients
same,patients with decrease in seizure frequency (percent),adult epilepsy patients [1]; of 30 patients,73.3%
same,"Color Index, After","adult epilepsy patients [2]; average, after treatment (before: 0.895)",0.928
same,"Eosinophiles (%), After","adult epilepsy patients [2]; average, after treatment (before: 2.53)",2.53%
same,"Monocytes (%), After","adult epilepsy patients [2]; average, after treatment (before: 3.0)",2.8%
same,"Erythrocytes, After",adult epilepsy patients [2]; [7],4.79 10^12/L
same,"ESR, After","adult epilepsy patients [2]; average, after treatment (before: 7.3)",5.2 mm
same,"Leukocytes, After","adult epilepsy patients [2]; average, after treatment (before: 7.9)",7.47 10^9/L
same,"Lymphocytes (%), After","adult epilepsy patients [2]; average, after treatment (before: 20.9)",21.1%
same,"Neutrophiles (%), After","adult epilepsy patients [2]; average, after treatment (before: 72.7)",71.2%
same,"Hemoglobin, After","adult epilepsy patients [2]; average, after treatment (before: 143.4), in g/L (unit assumed)",140.13
same,"Platelets, After","adult epilepsy patients [2]; average, after treatment (before: 205.5), in 10^9/L (unit assumed)",230.3
same,"Color Index, % dev.",adult epilepsy patients [2]; [8],3.7%
same,"ESR, % dev.",adult epilepsy patients [2]; [8],28.8%
same,"Eosinophiles, % dev.",adult epilepsy patients [2]; [8],0%
same,"Erythrocytes, % dev.",adult epilepsy patients [2]; [8],1.48%
same,"Hemoglobin, % dev.",adult epilepsy patients [2]; [8],2.3%
same,"Leukocytes, % dev.",adult epilepsy patients [2]; [8],5.95%
same,"Lymphocytes, % dev.",adult epilepsy patients [2]; [8],0.94%
same,"Monocytes, % dev.",adult epilepsy patients [2]; [8],6.7%
same,"Neutrophiles, % dev.",adult epilepsy patients [2]; [8],2.06%
same,"Platelets, % dev.",adult epilepsy patients [2]; [8],12.07%
same,effects on the blood counts and blood biochemistry,adult epilepsy patients [2]; during and after the treatment,No unfavorable effects
same,changes in blood and urine tests,adult epilepsy patients [2]; summary of the study,did not cause any changes
same,"Glucose, After",adult epilepsy patients [3]; [7],4.48 mmol/L
same,"General bilirubin, After","adult epilepsy patients [3]; average, after treatment (before: 14.3)",11.5 µmol/L
same,"ACT, After","adult epilepsy patients [3]; average, after treatment (before: 45.1)",24.6
same,"ALT, After","adult epilepsy patients [3]; average, after treatment (before: 46.2)",21.5
same,"Creatinin, after","adult epilepsy patients [3]; average, after treatment (before: 70.5)",69.4 µmol/L
same,"General Protein, After","adult epilepsy patients [3]; average, after treatment (before: 75.5)",77.4 g/L
same,"ACT, % dev.",adult epilepsy patients [3]; [8],45.4%
same,"ALT, % dev.",adult epilepsy patients [3]; [8],53.5%
same,"Creatinin, % dev.",adult epilepsy patients [3]; [8],1.6%
same,"General Protein, % dev.",adult epilepsy patients [3]; [8],2.5%
same,"General bilirubin, % dev.",adult epilepsy patients [3]; [8],19.6%
same,"Glucose, % dev.",adult epilepsy patients [3]; [8],5.7%
same,EEG parameters (focus of pathological activity),adult epilepsy patients [4],151.5 μV
same,heart rate,"adult epilepsy patients [5]; average, decreased from 88/min",80 min⁻¹
same,extrasystolia,adult epilepsy patients [5]; by the end of the first treatment month,not observed
same,patients' behavior and the functions of major organs and systems,adult epilepsy patients [6]; during 10 weeks of treatment,not negatively affected
same,cases with effective treatment of dysphoria or dysphoria-like conditions,adult epilepsy patients [6]; of all cases,93.3%
same,dysphoria and paroxysmal activity on EEG,"adult epilepsy patients [6]; patients who suffered from alcohol addiction in the past, after 1.5 month of treatment",disappeared or decreased
same,melting point,,84 to 86 °C
